Results as given in US9944598B2, “Mono- or di-substituted indole derivatives as dengue viral replication inhibitors” (priority 2014, dated 2018).

Tests used:
[1] = in vitro; assay type: cell-based; conditions: African green monkey, CC50
Method: (§1) In parallel, the toxicity of the compounds was assessed on the same plates. Once the read-out for the eGFP signal was done, 10 μL of resazurin, a cell viability stain, was added to all wells of the 384-well plates. The resazurin assay is based on the reduction of the blue resazurin by NADH, produced by the cells, into the highly fluorescent product, resorufin. The formation of pink fluorescent resorufin is directly related to the number of viable cells in the well. The plates were incubated for an additional 5 hours in a fully humidified incubator (37° C., 5% CO2). Next, the plates were measured on an Infinite reader (Tecan) using an excitation wavelength of 530 nm. The half maximal cytotoxic concentration (CC50) was also determined, defined as the concentration required to reduce the resazurin conversion by 50% compared to that of the cell control wells (Table 1). Finally, the selectivity index (SI) is determined for the compounds, which is calculated as followed: SI=CC50/EC50.

[2] = test system: DENV-2 16681 strain labeled with eGFP; experiment: DENV-2 antiviral assay (eGFP fluorescence, Vero cells); assay type: cell-based, Dengue virus; conditions: DENV-2 16681 eGFP, MOI 0.5, 3 days
Method: The antiviral activity of all the compounds of the invention was tested against DENV-2 16681 strain which was labeled with enhanced green fluorescent protein (eGPF). The culture medium consists of minimal essential medium supplemented with 2% of heat-inactivated fetal calf serum, 0.04% gentamycin (50 mg/mL) and 2 mM of L-glutamine. Vero cells, obtained from ECACC, were suspended in culture medium and 25 μL was added to 384-well plates (2500 cells/well), which already contain the antiviral compounds. Typically, these plates contain a 4-fold serial dilution of 9 dilution steps of the test compound at 200 times the final concentration in 100% DMSO (200 nL). In addition, each compound concentration is tested in quadruplicate (final concentration range: 25 μM-0.00038 μM). Finally, each plate contains wells which are assigned as virus controls (containing cells and virus in the absence of compound), cell controls (containing cells in the absence of virus and compound) and medium controls (containing medium in the absence of cells, virus and compounds). To the wells assigned as medium control, 25 μL of culture medium was added instead of Vero cells. Once the cells were added to the plates, the plates were incubated for 30 minutes at room temperature to allow the cells to distribute evenly within the wells. Next, the plates were incubated in a fully humidified incubator (37° C., 5% CO2) until the next day. Then, DENV-2 strain 16681, labeled with eGFP, was added at a multiplicity of infection (MOI) of 0.5. Therefore, 15 μL of virus suspension was added to all the wells containing test compound and to the wells assigned as virus control. In parallel, 15 μL of culture medium was added to the medium and cell controls. Next, the plates were incubated for 3 days in a fully humidified incubator (37° C., 5% CO2). At the day of the read out, the eGFP fluorescence was measured using an automated fluorescence microscope at 488 nm (blue laser). Using an in-house LIMS system, inhibition dose response curves for each compound were calculated and the half maximal effective concentration (EC50) was determined. Therefore, the percent inhibition (I) for every test concentration is calculated using the following formula: I=100*(ST−SCC)/(SVC−SCC); ST, SCC and SVC are the amount of eGFP signal in the test compound, cell control and virus control wells, respectively. The EC50 represents the concentration of a compound at which the virus replication is inhibited with 50%, as measured by a 50% reduction of the eGFP fluorescent intensity compared to the virus control. The EC50 is calculated using linear interpolation (Table 1).

[3] = test system: Vero cells; experiment: in vitro; assay type: cell-based; conditions: African green monkey
Method: as §1

[4] = Dengue virus, DENV2, Vero, 72 h

SMILES | CC50 [1] [nM] | EC50 [2, 4] [nM] | melting point [°C] | CC50 [3] [nM] | EC50 [2] [nM]
COc1cc(NC(C(=O)c2c[nH]c3cc(F)ccc23)c2ccc(Cl)cc2OC)cc(OCCO)c1 (racemic) [Compound 1, 2-(4-chloro-2-methoxyphenyl)-1-(6-fluoro-1H-indol-3-yl)-2-((3-(2-hydroxyethoxy)-5-methoxyphenyl)amino)ethanone] | 6200 | 3 |  |  | 
COc1cc(NC(C(=O)c2c[nH]c3c(C)c(Cl)ccc23)c2ccc(Cl)cc2OC)cc(OCCO)c1 (racemic) [Compound 3, 2-(4-chloro-2-methoxyphenyl)-1-(6-chloro-7-methyl-1H-indol-3-yl)-2-((3-(2-hydroxyethoxy)-5-methoxyphenyl)amino)ethanone] | 5500 | 0.72 | 220 |  | 
COc1cc(NC(C(=O)c2c[nH]c3cc(Cl)ccc23)c2ccc(Cl)cc2OC)cc(OCCO)c1 (racemic) [Compound 4, 1-(6-chloro-1H-indol-3-yl)-2-(4-chloro-2-methoxyphenyl)-2-((3-(2-hydroxyethoxy)-5-methoxyphenyl)amino)ethanone] | 6300 | 1.4 | 154 |  | 
COc1cc(NC(C(=O)c2c[nH]c3cc(OC)ccc23)c2ccc(Cl)cc2OC)cc(OCCO)c1 (racemic) [Compound 5, 2-(4-chloro-2-methoxyphenyl)-2-((3-(2-hydroxyethoxy)-5-methoxyphenyl)amino)-1-(6-methoxy-1H-indol-3-yl)ethanone] | 6500 | 2.3 |  |  | 
COc1cc(NC(C(=O)c2c[nH]c3cc(OC)c(C)cc23)c2ccc(Cl)cc2OC)cc(OCCO)c1 (racemic) [Compound 6, 2-(4-chloro-2-methoxyphenyl)-2-((3-(2-hydroxyethoxy)-5-methoxyphenyl)amino)-1-(6-methoxy-5-methyl-1H-indol-3-yl)ethanone] | 5600 | 1.2 |  |  | 
COc1cc(NC(C(=O)c2c[nH]c3cc(OC)c(F)cc23)c2ccc(Cl)cc2OC)cc(OCCO)c1 (racemic) [Compound 7, 2-(4-chloro-2-methoxyphenyl)-1-(5-fluoro-6-methoxy-1H-indol-3-yl)-2-((3-(2-hydroxyethoxy)-5-methoxyphenyl)amino)ethanone] | 7400 | 2.6 |  |  | 
COc1cc(NC(C(=O)c2c[nH]c3c(C)cc(F)cc23)c2ccc(Cl)cc2OC)cc(OCCO)c1 (racemic) [Compound 8, 2-(4-chloro-2-methoxyphenyl)-1-(5-fluoro-7-methyl-1H-indol-3-yl)-2-((3-(2-hydroxyethoxy)-5-methoxyphenyl)amino)ethanone] | 8000 | 2.4 |  |  | 
COc1cc(NC(C(=O)c2c[nH]c3cc(F)c(F)cc23)c2ccc(Cl)cc2OC)cc(OCCO)c1 (racemic) [Compound 9, 2-(4-chloro-2-methoxyphenyl)-1-(5,6-difluoro-1H-indol-3-yl)-2-((3-(2-hydroxyethoxy)-5-methoxyphenyl)amino)ethanone] | 7300 | 2.2 |  |  | 
COc1cc(NC(C(=O)c2c[nH]c3c(F)c(F)ccc23)c2ccc(Cl)cc2OC)cc(OCCO)c1 (racemic) [Compound 11, 2-(4-chloro-2-methoxyphenyl)-1-(6,7-difluoro-1H-indol-3-yl)-2-((3-(2-hydroxyethoxy)-5-methoxyphenyl)amino)ethanone] | 5800 | 3.1 |  |  | 
COc1cc(NC(C(=O)c2c[nH]c3cc(F)ccc23)c2ccc(Cl)cc2OC)cc(OCCO)c1 (single isomer, unassigned) [Compound 1B, 2-(4-chloro-2-methoxyphenyl)-1-(6-fluoro-1H-indol-3-yl)-2-((3-(2-hydroxyethoxy)-5-methoxyphenyl)amino)ethanone] |  |  |  | 6300 | 140
COc1cc(NC(C(=O)c2c[nH]c3c(C)c(F)ccc23)c2ccc(Cl)cc2OC)cc(OCCO)c1 (single isomer, unassigned) [Compound 2B, 2-(4-chloro-2-methoxyphenyl)-1-(6-fluoro-7-methyl-1H-indol-3-yl)-2-((3-(2-hydroxyethoxy)-5-methoxyphenyl)amino)ethanone] |  |  |  | 6200 | 81
COc1cc(NC(C(=O)c2c[nH]c3c(C)c(Cl)ccc23)c2ccc(Cl)cc2OC)cc(OCCO)c1 (single isomer, unassigned) [Compound 3B, 2-(4-chloro-2-methoxyphenyl)-1-(6-chloro-7-methyl-1H-indol-3-yl)-2-((3-(2-hydroxyethoxy)-5-methoxyphenyl)amino)ethanone] |  |  |  | 7100 | 45
COc1cc(NC(C(=O)c2c[nH]c3cc(Cl)ccc23)c2ccc(Cl)cc2OC)cc(OCCO)c1 (single isomer, unassigned) [Compound 4B, 1-(6-chloro-1H-indol-3-yl)-2-(4-chloro-2-methoxyphenyl)-2-((3-(2-hydroxyethoxy)-5-methoxyphenyl)amino)ethanone] |  |  |  | 7400 | 45
COc1cc(NC(C(=O)c2c[nH]c3cc(OC)ccc23)c2ccc(Cl)cc2OC)cc(OCCO)c1 (single isomer, unassigned) [Compound 5B, 2-(4-chloro-2-methoxyphenyl)-2-((3-(2-hydroxyethoxy)-5-methoxyphenyl)amino)-1-(6-methoxy-1H-indol-3-yl)ethanone] |  |  |  | 8100 | 400
COc1cc(NC(C(=O)c2c[nH]c3cc(OC)c(C)cc23)c2ccc(Cl)cc2OC)cc(OCCO)c1 (single isomer, unassigned) [Compound 6B, 2-(4-chloro-2-methoxyphenyl)-2-((3-(2-hydroxyethoxy)-5-methoxyphenyl)amino)-1-(6-methoxy-5-methyl-1H-indol-3-yl)ethanone] |  |  |  | 5400 | 76
COc1cc(NC(C(=O)c2c[nH]c3cc(OC)c(F)cc23)c2ccc(Cl)cc2OC)cc(OCCO)c1 (single isomer, unassigned) [Compound 7B, 2-(4-chloro-2-methoxyphenyl)-1-(5-fluoro-6-methoxy-1H-indol-3-yl)-2-((3-(2-hydroxyethoxy)-5-methoxyphenyl)amino)ethanone] |  |  |  | 7800 | 69
COc1cc(NC(C(=O)c2c[nH]c3c(C)cc(F)cc23)c2ccc(Cl)cc2OC)cc(OCCO)c1 (single isomer, unassigned) [Compound 8B, 2-(4-chloro-2-methoxyphenyl)-1-(5-fluoro-7-methyl-1H-indol-3-yl)-2-((3-(2-hydroxyethoxy)-5-methoxyphenyl)amino)ethanone] |  |  |  | 5700 | 260
COc1cc(NC(C(=O)c2c[nH]c3c(F)cc(C)cc23)c2ccc(Cl)cc2OC)cc(OCCO)c1 (single isomer, unassigned) [Compound 10B, 2-(4-chloro-2-methoxyphenyl)-1-(7-fluoro-5-methyl-1H-indol-3-yl)-2-((3-(2-hydroxyethoxy)-5-methoxyphenyl)amino)ethanone] |  |  |  | 3800 | 190
COc1cc(NC(C(=O)c2c[nH]c3c(F)c(F)ccc23)c2ccc(Cl)cc2OC)cc(OCCO)c1 (single isomer, unassigned) [Compound 11A, 2-(4-chloro-2-methoxyphenyl)-1-(6,7-difluoro-1H-indol-3-yl)-2-((3-(2-hydroxyethoxy)-5-methoxyphenyl)amino)ethanone] | 6500 |  |  |  | 90
COc1cc(NC(C(=O)c2c[nH]c3c(F)cc(C)cc23)c2ccc(Cl)cc2OC)cc(OCCO)c1 (stereo not drawn) [Compound 10, 2-(4-chloro-2-methoxyphenyl)-1-(7-fluoro-5-methyl-1H-indol-3-yl)-2-((3-(2-hydroxyethoxy)-5-methoxyphenyl)amino)ethanone] | 5800 | 7.5 |  |  | 
